Test results as given in US8426342B2, “Method for weed control in lawn” (priority 2008, dated 2013).

What was measured:
Digitaria sanguinalis = assay: Effectivity testing against weed plants ex. 5.3, in bermuda grass turf, Abbott %; format: in vivo
Excerpt: (§1) A co-formulation containing a mixture compounds no. […] Granules were applied with a shaker can.
(§2) Location: Sports turf, North Carolina, USA
(§3) Plot size: 1.4 m^2 and 3 replicates per treatment
(§4) Application timing: 27 Mar. 2007, spring application, early post for the weed
(§5) Effectivity was rated in percent (%) herbicidal effect compared with untreated control according to the method of Abbott mentioned above (see 5.1). 100% efficacy means full control; 0% efficacy means no control of the weed; all ratings above 80% are usually acceptable.
(§6) The application and evaluation were performed as described in example 5.2 with the following difference:
(§7) Turf grass species: Cynodon dactylon, variety (bermuda grass)
(§8) Weed species: Digitaria sanguinalis, Poa annua

Poa annua = assay: as above; format: in vivo; conditions: 210 DAT
Excerpt: as §1, §2, §3, §4, §5, §6, §7, §8

## Cc1ccc2c(c1)[C@H](Nc1nc(N)nc([C@@H](C)F)n1)[C@@H](C)C2 (stereo in doubt) [(A21)/(A22), indaziflam]
Digitaria sanguinalis; 12.5 g a.i./ha, 35 DAT
  Herbicidal effect (%) on Digitaria sanguinalis: 87%
Digitaria sanguinalis; 12.5 g a.i./ha, 56 DAT
  Herbicidal effect (%) on Digitaria sanguinalis: 63%
Digitaria sanguinalis; 12.5 g a.i./ha, 68 DAT
  Herbicidal effect (%) on Digitaria sanguinalis: 73%
Digitaria sanguinalis; 12.5 g a.i./ha, 107 DAT
  Herbicidal effect (%) on Digitaria sanguinalis: 70%
Digitaria sanguinalis; 12.5 g a.i./ha, 138 DAT
  Herbicidal effect (%) on Digitaria sanguinalis: 43%
Digitaria sanguinalis; 12.5 g a.i./ha, 180 DAT
  Herbicidal effect (%) on Digitaria sanguinalis: 57%
Digitaria sanguinalis; 25.0 g a.i./ha, 35 DAT
  Herbicidal effect (%) on Digitaria sanguinalis: 95%
Digitaria sanguinalis; 25.0 g a.i./ha, 56 DAT
  Herbicidal effect (%) on Digitaria sanguinalis: 96%
Digitaria sanguinalis; 25.0 g a.i./ha, 68 DAT
  Herbicidal effect (%) on Digitaria sanguinalis: 98%
Digitaria sanguinalis; 25.0 g a.i./ha, 107 DAT
  Herbicidal effect (%) on Digitaria sanguinalis: 97%
Digitaria sanguinalis; 25.0 g a.i./ha, 138 DAT
  Herbicidal effect (%) on Digitaria sanguinalis: 93%
Digitaria sanguinalis; 25.0 g a.i./ha, 180 DAT
  Herbicidal effect (%) on Digitaria sanguinalis: 93%
Digitaria sanguinalis; 50.0 g a.i./ha, 35 DAT
  Herbicidal effect (%) on Digitaria sanguinalis: 97%
Digitaria sanguinalis; 50.0 g a.i./ha, 56 DAT
  Herbicidal effect (%) on Digitaria sanguinalis: 98%
Digitaria sanguinalis; 50.0 g a.i./ha, 68 DAT
  Herbicidal effect (%) on Digitaria sanguinalis: 99%
Digitaria sanguinalis; 50.0 g a.i./ha, 107 DAT
  Herbicidal effect (%) on Digitaria sanguinalis: 99%
Digitaria sanguinalis; 50.0 g a.i./ha, 138 DAT
  Herbicidal effect (%) on Digitaria sanguinalis: 100%
Digitaria sanguinalis; 50.0 g a.i./ha, 180 DAT
  Herbicidal effect (%) on Digitaria sanguinalis: 100%
Digitaria sanguinalis; 100.0 g a.i./ha, 35 DAT
  Herbicidal effect (%) on Digitaria sanguinalis: 96%
Digitaria sanguinalis; 100.0 g a.i./ha, 56 DAT
  Herbicidal effect (%) on Digitaria sanguinalis: 99%
Digitaria sanguinalis; 100.0 g a.i./ha, 68 DAT
  Herbicidal effect (%) on Digitaria sanguinalis: 99%
Digitaria sanguinalis; 100.0 g a.i./ha, 107 DAT
  Herbicidal effect (%) on Digitaria sanguinalis: 99%
Digitaria sanguinalis; 100.0 g a.i./ha, 138 DAT
  Herbicidal effect (%) on Digitaria sanguinalis: 99%
Digitaria sanguinalis; 100.0 g a.i./ha, 180 DAT
  Herbicidal effect (%) on Digitaria sanguinalis: 99%
Digitaria sanguinalis; 200.0 g a.i./ha, 35 DAT
  Herbicidal effect (%) on Digitaria sanguinalis: 98%
Digitaria sanguinalis; 200.0 g a.i./ha, 56 DAT
  Herbicidal effect (%) on Digitaria sanguinalis: 99%
Digitaria sanguinalis; 200.0 g a.i./ha, 68 DAT
  Herbicidal effect (%) on Digitaria sanguinalis: 99%
Digitaria sanguinalis; 200.0 g a.i./ha, 107 DAT
  Herbicidal effect (%) on Digitaria sanguinalis: 100%
Digitaria sanguinalis; 200.0 g a.i./ha, 138 DAT
  Herbicidal effect (%) on Digitaria sanguinalis: 100%
Digitaria sanguinalis; 200.0 g a.i./ha, 180 DAT
  Herbicidal effect (%) on Digitaria sanguinalis: 100%
Poa annua; 12.5 g a.i./ha
  Herbicidal effect (%) on Poa annua: 70%
Poa annua; 25.0 g a.i./ha
  Herbicidal effect (%) on Poa annua: 97%
Poa annua; 50.0 g a.i./ha
  Herbicidal effect (%) on Poa annua: 100%
Poa annua; 100.0 g a.i./ha
  Herbicidal effect (%) on Poa annua: 100%
Poa annua; 200.0 g a.i./ha
  Herbicidal effect (%) on Poa annua: 100%
